Values of other authors, collected in patent US20260102363A1, “TREATMENT METHOD AND ANTIFUNGAL COMPOSITION” (MOBERG PHARMA AB, priority 2020, published 2026).
Where a name gives a salt, the structure may show the parent alone. Read-outs that look alike come from different tables or passages of the source.

Experiments:
[1] = Study 1 of the prescribing information
[2] = Study 2 of the prescribing information
[3] = single reported study, hydrochloride

For `Cc1cc(C2CCCCC2)n(O)c(=O)c1` [Ciclopirox (Penlac ®), ciclopirox], the “Complete Cure (%)” value (DSO; [1]) is given as 5.5%, the “Mycological Cure (%)” value (DSO; [1]) is given as 29% and the “Complete Cure (%)” value (DSO; [2]) is given as 8.5%. For the same compound, the “Mycological Cure (%)” value (DSO; [2]) was 36%.

For `C=C1CCN([C@H](C)[C@](O)(Cn2cncn2)c2ccc(F)cc2F)CC1` [Efinaconazole (JUBLIA ®), efinaconazole], the “Complete Cure (%)” value (DSO; [1]) is listed as 15.2%, the “Mycological Cure (%)” value (DSO; [1]) is listed as 53.4% and the “Complete Cure (%)” value (DSO; [2]) is listed as 17.8%. The “Mycological Cure (%)” value (DSO; [2]) was 55.2%.

In the case of `N#C/C(=C1/SC[C@@H](c2ccc(Cl)cc2Cl)S1)n1ccnc1` [Luliconazole], the “Complete Cure (%)” value (DSO; single reported study) is given as 14.9% and the “Mycological Cure (%)” value (DSO; single reported study) is given as 45.4%.

For `OB1OCc2cc(F)ccc21` [Tavaborole (KERYDIN ®), tavaborole], the “Complete Cure (%)” value (DSO; [1]) is listed as 6.5%, the “Mycological Cure (%)” value (DSO; [1]) is listed as 31% and the “Complete Cure (%)” value (DSO; [2]) is listed as 9.1%. The “Mycological Cure (%)” value (DSO; [2]) was 35.9%.

In the case of `CN(C/C=C/C#CC(C)(C)C)Cc1cccc2ccccc12` [Terbinafine (P3058), Terbinafine], the “Complete Cure (%)” value (DSO; single reported study) is listed as 5.7% and the “Mycological Cure (%)” value (DSO; single reported study) is listed as 20.4%.

For `CN(C/C=C/C#CC(C)(C)C)Cc1cccc2ccccc12` [Terbinafine (oral) (LAMISIL ®), terbinafine hydrochloride], the “Complete Cure (%)” value (DSO; [3]) is given as 38%, the “Mycological Cure (%)” value (DSO; [3]) is given as 70% and the mycological cure rate (onychomycosis; after 12 weeks) is given as roughly 15%. For the same compound, the mycological cure rate (onychomycosis; at 24 weeks) was roughly 40% and the mycological cure rate (onychomycosis; at week 48/52) was roughly 70%.
